Test results as given in PubChem BioAssay AID330 (DTP/NCI, 2004).
Values joined by “and” are separate entries in the source; they are usually repeats but may differ in a detail not shown here. Equal values may be shown once. Toxic doses and inconclusive results are not listed. How the source made its calls: active means survival T/C of 150% or more; inactive means T/C below 125% in these data.

System: P388 leukemia ip, CD2F1 mice, survival T/C
Assay: NCI In Vivo Anticancer Drug Screen. Data for tumor model P388 Leukemia (intraperitoneal) in CD2F1 (CDF1) mice
Details: endpoint: median survival time, higher = longer survival
How it was run: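 Mice carrying the transplanted tumor received test compound or vehicle. Survival was recorded in each group, and the value is the treated-group measurement divided by that of the vehicle-treated control group.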

[1] = dose: 50.0 mg/kg/injection, schedule: Q01DX009 (ip), vehicle: saline
[2] = dose: 100.0 mg/kg/injection, schedule: Q01DX009 (ip), vehicle: saline
[3] = dose: 200.0 mg/kg/injection, schedule: Q01DX009 (ip), vehicle: saline
[4] = dose: 25.0 mg/kg/injection, schedule: Q04DX002 (ip), vehicle: saline with Tween-80
[5] = dose: 50.0 mg/kg/injection, schedule: Q04DX002 (ip), vehicle: saline with Tween-80
[6] = dose: 100.0 mg/kg/injection, schedule: Q04DX002 (ip), vehicle: saline with Tween-80
[7] = dose: 30.0 mg/kg/injection, schedule: Q01DX005 (ip), vehicle: saline with Tween-80
[8] = dose: 60.0 mg/kg/injection, schedule: Q01DX005 (ip), vehicle: saline with Tween-80
[9] = dose: 120.0 mg/kg/injection, schedule: Q01DX005 (ip), vehicle: saline with Tween-80
[10] = dose: 240.0 mg/kg/injection, schedule: Q01DX005 (ip), vehicle: saline with Tween-80
[11] = dose: 50.0 mg/kg/injection, schedule: Q01DX009 (ip), vehicle: Klucel (hydroxypropylcellulose) (HPC)
[12] = dose: 100.0 mg/kg/injection, schedule: Q01DX009 (ip), vehicle: Klucel (hydroxypropylcellulose) (HPC)
[13] = dose: 200.0 mg/kg/injection, schedule: Q01DX009 (ip), vehicle: Klucel (hydroxypropylcellulose) (HPC)

Measured: T/C

C(=N/OC(c1ccccc1)(c1ccccc1)c1ccccc1)/c1ccccc1
inactive: dose: 25.0 mg/kg/injection, schedule: Q04DX003 (ip), vehicle: saline 104 % of control | dose: 75.0 mg/kg/injection, schedule: Q04DX003 (ip), vehicle: saline 100 % of control | dose: 150.0 mg/kg/injection, schedule: Q04DX003 (ip), vehicle: saline 95 % of control

CCCCCCC[N+]1([O-])CCOCC1
inactive: [1] 99 % of control | [2] 100 % of control | [3] 97 % of control

CCCCCCCCC(=O)CC
inactive: dose: 100.0 mg/kg/injection, schedule: Q01DX009 (ip), vehicle: saline with Tween-80 118 % of control | dose: 100.0 mg/kg/injection, schedule: Q04DX003 (ip), vehicle: saline 104 % of control | dose: 200.0 mg/kg/injection, schedule: Q01DX009 (ip), vehicle: saline with Tween-80 109 % of control | dose: 200.0 mg/kg/injection, schedule: Q04DX003 (ip), vehicle: saline 100 % of control | dose: 400.0 mg/kg/injection, schedule: Q04DX003 (ip), vehicle: saline 95 % of control

CC(=O)Oc1ccc2c(c1)c1c(OC(C)=O)c(N(C)C(C)=O)cc(OC(C)=O)c1n2C
inactive: [1] 100 % of control | [2] 86 % of control | [3] 100 % of control

O=C(CCc1ccc(O)c(O)c1)c1ccc(O)c(O)c1O
inactive: dose: 4.0 mg/kg/injection, schedule: Q01DX009 (ip), vehicle: saline 111 % of control | dose: 8.0 mg/kg/injection, schedule: Q01DX009 (ip), vehicle: saline 104 % of control | dose: 16.0 mg/kg/injection, schedule: Q01DX009 (ip), vehicle: saline 102 % of control | dose: 32.0 mg/kg/injection, schedule: Q01DX009 (ip), vehicle: saline 114 % of control

CCCCCCC(=O)/C=C\c1ccccc1
inactive: [4] 95 % of control | [5] 100 % of control | [6] 97 % of control | dose: 200.0 mg/kg/injection, schedule: Q04DX002 (ip), vehicle: saline with Tween-80 106 % of control

CCC(C)CN1CCc2c3c(c(OC)c(OC)c2C1)CCC3 (stereo not drawn)
inactive: dose: 100.0 mg/kg/injection, schedule: Q04DX002 (ip), vehicle: saline 101 % of control | dose: 200.0 mg/kg/injection, schedule: Q04DX002 (ip), vehicle: saline 101 % of control

NCCNC[Si](c1ccccc1)(c1ccccc1)c1ccccc1
inactive: dose: 15.0 mg/kg/injection, schedule: Q01DX005 (ip), vehicle: saline with Tween-80 102 % of control | [7] 102 % of control

NC1=NS(=O)(=O)c2ccccc21
inactive: dose: 50.0 mg/kg/injection, schedule: Q01DX005 (ip), vehicle: saline with Tween-80 101 % of control | dose: 100.0 mg/kg/injection, schedule: Q01DX005 (ip), vehicle: saline with Tween-80 106 % of control | dose: 200.0 mg/kg/injection, schedule: Q01DX005 (ip), vehicle: saline with Tween-80 99 % of control

O=C1Nc2ccccc2/C1=N/N=c1\scc(-c2ccc(Br)cc2)n1-c1ccc(Cl)cc1
inactive: dose: 50.0 mg/kg/injection, schedule: Q01DX001 (ip), vehicle: saline with Tween-80 93 % of control | dose: 100.0 mg/kg/injection, schedule: Q01DX001 (ip), vehicle: saline with Tween-80 99 % of control | dose: 200.0 mg/kg/injection, schedule: Q01DX001 (ip), vehicle: saline with Tween-80 89 % of control and 94 % of control

NC(=O)C1C2CCC(O2)C1C(=O)O (stereo not drawn)
inactive: dose: 1.56 mg/kg/injection, schedule: Q01DX005 (ip), vehicle: Klucel (hydroxypropylcellulose) (HPC) 99 % of control | dose: 3.12 mg/kg/injection, schedule: Q01DX005 (ip), vehicle: Klucel (hydroxypropylcellulose) (HPC) 97 % of control | dose: 6.25 mg/kg/injection, schedule: Q01DX005 (ip), vehicle: Klucel (hydroxypropylcellulose) (HPC) 95 % of control

CC(=O)Nc1c(Nc2ccc3c(=O)[nH]ccc3c2C)cc[nH]c1=O
inactive: [8] 102 % of control | [9] 104 % of control | [10] 103 % of control

CC1(C)CC(Nc2ccccc2)=CC(=Nc2ccccc2)S1
inactive: dose: 60.0 mg/kg/injection, schedule: Q01DX005 (ip), vehicle: Klucel (hydroxypropylcellulose) (HPC) 110 % of control | dose: 120.0 mg/kg/injection, schedule: Q01DX005 (ip), vehicle: Klucel (hydroxypropylcellulose) (HPC) 92 % of control | dose: 240.0 mg/kg/injection, schedule: Q01DX005 (ip), vehicle: Klucel (hydroxypropylcellulose) (HPC) 89 % of control

CCOC(=O)NNC1=C(CC(=O)c2ccccc2)C(=O)CC(C)(C)C1
inactive: [11] 101 % of control | [12] 102 % of control | [13] 109 % of control

C1=NC(c2ccccn2)=NNC(c2ccccn2)=C1c1ccccc1
inactive: dose: 12.5 mg/kg/injection, schedule: Q01DX009 (ip), vehicle: Klucel (hydroxypropylcellulose) (HPC) 97 % of control | dose: 25.0 mg/kg/injection, schedule: Q01DX009 (ip), vehicle: Klucel (hydroxypropylcellulose) (HPC) 98 % of control | [11] 93 % of control | [12] 96 % of control | [13] 93 % of control

COC(=O)C(O)C1OC(COCc2ccccc2)C(OCc2ccccc2)C1OCc1ccccc1 (stereo not drawn)
inactive: dose: 12.5 mg/kg/injection, schedule: Q01DX009 (ip), vehicle: distilled water + alcohol 100 % of control | dose: 25.0 mg/kg/injection, schedule: Q01DX009 (ip), vehicle: distilled water + alcohol 100 % of control | dose: 50.0 mg/kg/injection, schedule: Q01DX009 (ip), vehicle: distilled water + alcohol 103 % of control | dose: 100.0 mg/kg/injection, schedule: Q01DX009 (ip), vehicle: distilled water + alcohol 100 % of control | dose: 200.0 mg/kg/injection, schedule: Q01DX009 (ip), vehicle: distilled water + alcohol 112 % of control

COc1ccc(OC)c(/C=C/c2cnnc3ccccc23)c1
inactive: dose: 18.75 mg/kg/injection, schedule: Q04DX003 (ip), vehicle: Klucel (hydroxypropylcellulose) (HPC) 100 % of control | dose: 37.5 mg/kg/injection, schedule: Q04DX003 (ip), vehicle: Klucel (hydroxypropylcellulose) (HPC) 111 % of control | dose: 75.0 mg/kg/injection, schedule: Q04DX003 (ip), vehicle: Klucel (hydroxypropylcellulose) (HPC) 100 % of control | dose: 150.0 mg/kg/injection, schedule: Q04DX003 (ip), vehicle: Klucel (hydroxypropylcellulose) (HPC) 106 % of control | dose: 300.0 mg/kg/injection, schedule: Q04DX003 (ip), vehicle: Klucel (hydroxypropylcellulose) (HPC) 103 % of control

CCOC(=O)[C](=[N+]=[N-])[Hg][C](=[N+]=[N-])C(=O)OCC
inactive: dose: 1.56 mg/kg/injection, schedule: Q04DX003 (ip), vehicle: saline 100 % of control | dose: 3.12 mg/kg/injection, schedule: Q04DX003 (ip), vehicle: saline 101 % of control | dose: 6.25 mg/kg/injection, schedule: Q04DX003 (ip), vehicle: saline 100 % of control

CCCOc1cc2c(cc1C(C)c1ccc(OCC)c(C)c1)OCO2 (stereo not drawn)
inactive: [7] 100 % of control | [8] 103 % of control | [9] 106 % of control | [10] 116 % of control

CN=C(N)N/N=C/c1c2ccccc2cc2ccccc12
inactive: [4] 115 % of control | [5] 111 % of control | [6] 114 % of control

Cc1nc2ccc(Cl)cn2c1[N+](=O)[O-]
inactive: [11] 96 % of control | [12] 95 % of control | [13] 96 % of control

O=C1CCCCC12CCCC2
inactive: dose: 87.5 mg/kg/injection, schedule: Q01DX001 (ip), vehicle: saline sonified 100 % of control | dose: 175.0 mg/kg/injection, schedule: Q01DX001 (ip), vehicle: saline sonified 100 % of control | dose: 250.0 mg/kg/injection, schedule: Q01DX001 (ip), vehicle: saline sonified 105 % of control

C=C(C)C1CC=C(CCCC(C)COC2OCC(OC(=O)/C(C)=C/CCC3=CCC(C(=C)C)CC3O)C(O)C2O)CC1 (stereo not drawn)
inactive: dose: 10.75 mg/kg/injection, schedule: Q01DX005 (ip), vehicle: Klucel (hydroxypropylcellulose) (HPC) 103 % of control | dose: 21.5 mg/kg/injection, schedule: Q01DX005 (ip), vehicle: Klucel (hydroxypropylcellulose) (HPC) 114 % of control | dose: 43.0 mg/kg/injection, schedule: Q01DX005 (ip), vehicle: Klucel (hydroxypropylcellulose) (HPC) 119 % of control

Cc1ccc2nc(N)nnc2c1
inactive: [11] 104 % of control | [12] 100 % of control

O=C1CC23c4ccccc4N4C(=O)CC5OCC=C6CN1C2CC6C5C43 (stereo not drawn)
inactive: [8] 101 % of control | [9] 92 % of control | [10] 92 % of control
